Assays:
rice (Oryza sativa) = experiment: Test C flooded paddy; type: in vivo; conditions: Flood, scale 0 to 100
Text: At time of treatment, test pots were flooded to 3 cm above the soil surface, treated by application of test compounds directly to the paddy water, and then maintained at that water depth for the duration of the test. Treated plants and controls were maintained in a greenhouse for 13 to 15 days, after which time all species were compared to controls and visually evaluated. […] A dash (-) response means no test result.

wild oat (Avenafatua) = experiment: Test D preemergence; type: in vivo, Avena fatua; conditions: scale 0 to 100
Text: Seeds of plant species selected from bluegrass (annual bluegrass, Poa annua), blackgrass (Alopecurus myosuroides), canarygrass (Phalaris minor), chickweed (common chickweed, Stellaria media), cutleaf geranium (Geranium dissectum), galium (catchweed bedstraw, Galium aparine), downy bromegrass (Bromus tectorum), field poppy (Papaver rhoeas), field violet (Viola arvensis), green foxtail (Setaria viridis), deadnettle (henbit deadnettle, Lamium amplexicaule), Italian ryegrass (Lolium multiflorum), kochia (Kochia scoparia), lambsquarters (Chenopodium album), oilseed rape (Brassica napus), pigweed (Amaranthus retroflexus), chamomile (scentless chamomile, Matricaria inodora), Russian thistle (Salsola kali), speedwell (bird's-eye speedwell, Veronica persica), spring barley (Hordeum vulgare), spring wheat (Triticum aestivum), wild buckwheat (Polygonum convolvulus), wild mustard (Sinapis arvensis), wild oat (Avenafatua), wild radish (Raphanus raphanistrum), windgrass (Apera spica-venti), winter barley (Hordeum vulgare), and winter wheat (Triticum aestivum) were planted into a silt loam soil and treated preemergence with test chemicals formulated in a non-phytotoxic solvent mixture which included a surfactant.
At the same time, these species were planted in pots containing Redi-Earth® planting medium (Scotts Company, 14111 Scottslawn Road, Marysville, Ohio 43041) comprising spaghnum peat moss, vermiculite, wetting agent and starter nutrients and treated with postemergence applications of the test chemicals formulated in the same manner. Plants ranged in height from 2 to 18 cm (1- to 4-leaf stage). Treated plants and controls were maintained in a controlled growth environment for 14 to 21 days after which time all species were compared to controls and visually evaluated. Plant response ratings, summarized in Table D, are based on a scale of 0 to 100 where 0 is no effect and 100 is complete control. A dash (-) response means no test result.

[1] = tested on: winter wheat (Triticum aestivum); experiment: Test D preemergence; type: in vivo; conditions: scale 0 to 100
Outline: (§1)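 Seeds were sown in silt loam for preemergence treatment, or in peat/vermiculite medium for postemergence sprays at 2–18 cm (1- to 4-leaf stage). Test chemicals were in a non-phytotoxic solvent with surfactant. After 14–21 days in a controlled environment, plants were visually rated against controls on a 0–100 scale (0 no effect, 100 complete control).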

[2] = tested on: field violet (Viola arvensis); experiment: Test D preemergence; type: in vivo; conditions: scale 0 to 100
Outline: as §1

[3] = tested on: green foxtail (Setaria viridis); experiment: Test D preemergence; type: in vivo; conditions: scale 0 to 100
Outline: as §1

[4] = tested on: Russian thistle (Salsola kali); experiment: Test D preemergence; type: in vivo; conditions: scale 0 to 100
Outline: as §1

[5] = tested on: cutleaf geranium (Geranium dissectum); experiment: Test D preemergence; type: in vivo; conditions: scale 0 to 100
Outline: as §1

[6] = tested on: chamomile (scentless chamomile, Matricaria inodora); experiment: Test D preemergence; type: in vivo; conditions: scale 0 to 100
Outline: as §1

[7] = tested on: lambsquarters (Chenopodium album); experiment: Test D preemergence; type: in vivo; conditions: scale 0 to 100
Outline: as §1

[8] = tested on: wild radish (Raphanus raphanistrum); experiment: Test D preemergence; type: in vivo; conditions: scale 0 to 100
Outline: as §1

SMILES | Plant response rating, Rice (rice (Oryza sativa); 31 g ai/ha) | Plant response rating, Rice (rice (Oryza sativa); 62 g ai/ha) | Plant response rating, Rice (rice (Oryza sativa); 125 g ai/ha) | Plant response rating, Rice (rice (Oryza sativa); 250 g ai/ha) | Plant response rating, Oat, Wild (wild oat (Avenafatua); 16 g ai/ha) | Plant response rating, Oat, Wild (wild oat (Avenafatua); 31 g ai/ha) | Plant response rating, Oat, Wild (wild oat (Avenafatua); 62 g ai/ha) | Plant response rating, Oat, Wild (wild oat (Avenafatua); 125 g ai/ha) | Plant response rating, Wheat, Winter ([1]; 16 g ai/ha) | Plant response rating, Wheat, Winter ([1]; 31 g ai/ha) | Plant response rating, Wheat, Winter ([1]; 62 g ai/ha) | Plant response rating, Wheat, Winter ([1]; 125 g ai/ha) | Plant response rating, Field Violet ([2]; 16 g ai/ha) | Plant response rating, Field Violet ([2]; 31 g ai/ha) | Plant response rating, Field Violet ([2]; 62 g ai/ha) | Plant response rating, Field Violet ([2]; 125 g ai/ha) | Plant response rating, Foxtail, Green ([3]; 16 g ai/ha) | Plant response rating, Foxtail, Green ([3]; 31 g ai/ha) | Plant response rating, Foxtail, Green ([3]; 62 g ai/ha) | Plant response rating, Foxtail, Green ([3]; 125 g ai/ha) | further results
N#Cc1cccc(Oc2ncc(Cl)cn2)c1Oc1ncc(Br)cn1 [Compound 4, 2-[(5-bromo-2-pyrimidinyl)oxy]-3-[(5-chloro-2-pyrimidinyl)oxy]benzonitrile] | 0 | 0 | 0 | 30 | – | – | – | – | – | – | – | – | – | – | – | – | – | – | – | – | –
Fc1cccc(Oc2ncc(Cl)cn2)c1Oc1ccc(Cl)nc1 [Compound 20] | 0 | 0 | 0 | 0 | – | – | – | – | – | – | – | – | – | – | – | – | – | – | – | – | –
Fc1cnc(Oc2c(Br)cccc2Oc2ncc(Cl)cn2)nc1 [Compound 22] | – | – | – | – | 5 | 10 | 20 | 25 | 0 | 0 | 5 | 40 | 15 | 75 | 95 | 95 | 15 | 35 | 40 | 40 | Plant response rating, Russian Thistle ([4]; 16 g ai/ha): 0; Plant response rating, Russian Thistle ([4]; 31 g ai/ha): 0; Plant response rating, Russian Thistle ([4]; 62 g ai/ha): 5; Plant response rating, Russian Thistle ([4]; 125 g ai/ha): 5; Plant response rating, Geranium, Cutleaf ([5]; 16 g ai/ha): 25; Plant response rating, Geranium, Cutleaf ([5]; 31 g ai/ha): 35; Plant response rating, Geranium, Cutleaf ([5]; 62 g ai/ha): 70; Plant response rating, Geranium, Cutleaf ([5]; 125 g ai/ha): 100; Plant response rating, Chamomile ([6]; 16 g ai/ha): 30; Plant response rating, Chamomile ([6]; 31 g ai/ha): 40; Plant response rating, Chamomile ([6]; 62 g ai/ha): 55; Plant response rating, Chamomile ([6]; 125 g ai/ha): 100; Plant response rating, Lambsquarters ([7]; 16 g ai/ha): 20; Plant response rating, Lambsquarters ([7]; 31 g ai/ha): 85; Plant response rating, Lambsquarters ([7]; 62 g ai/ha): 100; Plant response rating, Lambsquarters ([7]; 125 g ai/ha): 100; Plant response rating, Radish, Wild ([8]; 16 g ai/ha): 45; Plant response rating, Radish, Wild ([8]; 31 g ai/ha): 55; Plant response rating, Radish, Wild ([8]; 62 g ai/ha): 70; Plant response rating, Radish, Wild ([8]; 125 g ai/ha): 80
Fc1cccc(Oc2ncc(C(F)(F)F)cn2)c1Oc1ncc(Cl)cn1 [Compound 42, 5-chloro-2-[2-fluoro-6-[[5-(trifluoromethyl)-2-pyrimidinyl]oxy]phenoxy]pyrimidine] | – | – | – | – | 5 | 5 | 50 | 95 | 0 | 0 | 0 | 50 | 25 | 100 | 100 | 100 | 10 | 60 | 100 | 100 | Plant response rating, Russian Thistle ([4]; 16 g ai/ha): 0; Plant response rating, Russian Thistle ([4]; 31 g ai/ha): 20; Plant response rating, Russian Thistle ([4]; 62 g ai/ha): 15; Plant response rating, Russian Thistle ([4]; 125 g ai/ha): 55; Plant response rating, Lambsquarters ([7]; 16 g ai/ha): 85; Plant response rating, Lambsquarters ([7]; 31 g ai/ha): 100; Plant response rating, Lambsquarters ([7]; 62 g ai/ha): 100; Plant response rating, Lambsquarters ([7]; 125 g ai/ha): 100; Plant response rating, Radish, Wild ([8]; 16 g ai/ha): 25; Plant response rating, Radish, Wild ([8]; 62 g ai/ha): 85; Plant response rating, Radish, Wild ([8]; 125 g ai/ha): 100

Source: patent publication US20170190671A1, “BIS(ARYL)CATECHOL DERIVATIVES AS HERBICIDES” (E I DU PONT DE NEMOURS AND COMPANY, priority 2014, published 2017)
